Measured values reported in patent US6921811B2, “Bioactive coating composition and methods” (BioSurface Engineering Technologies, Inc., priority 1998, dated 2005).

Tests used:
C3H10T1/2 cells = assay: Cross-titration of fibronectin and silyl-heparin needed to support cell attachment; format: cell-based, murine; details: silyl-heparin titrated from 30 μg/well, fibronectin then applied at 4 μg/well; 24 hours; crystal violet, 610 nm
Experimental: The optimal amount of fibronectin and silyl-heparin to support attachment of C3H10T1/2 cells was determined by cross-titration, as shown on FIG. 1. […] The fall-off for the silyl-heparin was more gradual. The curve of the relative amount of silyl-heparin on the substrate following serial dilution generally followed the cell attachment curve.
In FIG. 1, fibronectin (Δ—Δ) or silyl-heparin (•—•) were titrated to determine the quantity needed to support attachment of C3H10T1/2 cells. All dilutions were performed in quadruplicate in wells of 96-well plates of low-attachment polystyrene. For titration of fibronectin, silyl-heparin was applied at 30 μg/well in 70% ethanol as in Example 4. After rinsing, fibronectin was applied in doubling dilutions of phosphate buffered saline starting from 4 μg/well. For titration of silyl-heparin, silyl-heparin was applied in doubling dilutions in 70% ethanol starting from silyl-heparin concentrations of 30 μg/well. Fibronectin was then applied in saline at 4 μg/well. Cells were at a concentration of 10^4 cells/well in growth medium. For both experiments, the cells were allowed 24 hours to attach and then were rinsed and fixed in buffered formalin. The cells were stained for 5 minutes with 0.01% aqueous crystal violet and the absorbance at 610 nm determined.

[1] = test system: GS-9L cells (rat gliosarcoma); assay: Cell attachment, spreading and growth on coated low-attachment polystyrene wells; format: cell-based; details: 10^4 cells/well, serum-containing medium
Excerpt: (§1) Several cell types were used, including GS-9L cells (rat gliosarcoma), C3H10T1/2 (murine fibroblasts), Jurkat (human T cell), bovine aorta endothelial (BAE) cells and rat lymphocytes. GS-9L and C3H10T1/2 cells were maintained in log phase growth and detached from cultureware using Versene and collected by centrifugation. Jurkat cells grew as single cell suspensions and were collected by centrifugation. Rat lymphocytes were collected from heparinized blood by density gradient isolation over Ficoll-Hypaque® media. The collected cells were rinsed once by low speed centrifugation and suspended in either serum-free Dulbecco's Modified Eagles Medium (DMEM) containing pyruvate or RPMI 1640 containing 10% fetal bovine serum (FBS) supplemented with pyruvate. Aliquots of 10^4 cells in 100 μL were used in subsequent adhesion studies.
(§2) The cells were examined after plating using an inverted, phase-contrast microscope. At selected time points up to 4 days after initial seeding, the cells were rinsed three times in saline and fixed in buffered 10% formalin or 35% ethanol. In some cases, the cells were stained in situ with a 0.01 % aqueous solution of crystal violet. The amount of attachment was scored visually or quantitated. To establish the relative number of cells bound, crystal violet stained cells were dissolved in a solution of 70% ethanol containing 0.1% sodium dodecyl sulfate and 0.38 M Tris and the absorbance monitored at 610 nm, using the methods of Scragg and Ferreira (Anal Biochem 198:80-5, 1991) and Grando et al. (Skin Pharmacol 6:135-47, 1993).
(§3) The cells of Example 7 were added to untreated polystyrene wells, wells coated with silyl-heparin as in Example 4, with silyl-heparin-fibronectin as in Example 5, and with only fibronectin by incubation as described in Example 5. […] Cells were seeded at a concentration of 10^4 cells/well in serum-containing medium.
(§4) The cells grew to confluency by 4 days. […] No effort was made to grow the cells in a defined- or serum-low medium known to support growth.

[2] = test system: bovine aorta endothelial (BAE) cells; assay: as above; format: cell-based; details: 10^4 cells/well, serum-containing medium
Excerpt: as §1, §2, §3, §4

[3] = molecular target: T1, vascular endothelial growth factor (VEGF) (Homo sapiens, UniProt P15692); assay: VEGF binding to silyl-heparin coated wells, immunoassay; details: anti-VEGF antibodies; absorbance 405 nm
T1 sequence (P15692 27-191 isoform P15692-4 limits assumed): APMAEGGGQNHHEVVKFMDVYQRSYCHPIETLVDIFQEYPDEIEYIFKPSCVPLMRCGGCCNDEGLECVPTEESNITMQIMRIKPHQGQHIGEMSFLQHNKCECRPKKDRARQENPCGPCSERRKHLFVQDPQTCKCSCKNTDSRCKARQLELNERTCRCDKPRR
Experimental: Wells of 96 well polystyrene microtiter plates were coated with 30 μL of silyl heparin for 15 minutes at 37° C. The wells were rinsed extensively in water and air-dried. The wells were blocked by adding 250 μL of PBS containing 1 % BSA for 30 minutes. After removing the blocking solution, VEGF in PBS/BSA was added in 100 μL and at the appropriate concentration. The plate was incubated at 37° C. for 1 hour and rinsed 5 times in water. An aliquot of PBS/BSA containing rabbit anti-VEGF antibodies (1:125) was added and the plate incubated for one hour. After rinsing in water, an aliquot of PBS/BSA containing horseradish peroxidase-conjugated anti-rabbit IgG (1:250) was added and incubated for one hour. After rinsing, 200 μL of chromogen (2,2′-azinobis 3-ethylbenzothiazoline-6-[…]) from a commercially available kit was added, the color developed, and the reaction stopped by adding 50 μL of aqueous 2% sodium dodecyl sulfate (SDS). The absorbance was monitored at 405 nm.

[4] = test system: C3H10T1/2 (murine fibroblasts); assay: Cell attachment, spreading and growth on coated low-attachment polystyrene wells; format: cell-based; details: C3H10T1/2; coated low-attachment polystyrene wells; 10^4 cells/well; serum-containing medium
Excerpt: as §1, §2, §3
The cells grew to confluency by 4 days. […] No effort was made to grow the cells in a defined- or serum-low medium known to support growth. […]

bFGF = molecular target: T2, bFGF (Homo sapiens, UniProt P09038); assay: bFGF binding to silyl-heparin coated polystyrene wells, immunoassay
T2 construct: purchased Sigma Chemical Co
Experimental: Wells of 96 well polystyrene microtiter plates, with a well surface area of 0.32 cm^2, were coated with 30 μl of silyl heparin for 15 minutes at 37° C. After rinsing and air-drying, bFGF (Sigma Chemical Co.) in PBS/BSA was added in 150 μL aliquots in doubling dilutions. The plate was incubated at 37° C. for 1 hour and rinsed 5 times in PBS. An aliquot 150 μl of PBS/BSA containing 1:500 rabbit anti-FGF antibodies were added, incubated for 1 hour and rinsed. In some cases an irrelevant rabbit antibody was used at a similar concentration (rabbit anti-TGF-receptor II, Santa Cruz Biotechnology). An aliquot of PBS/BSA containing 1:500 HRPO-conjugated donkey anti-rabbit IgG added, and after incubation and rinsing ABTS-chromogen added. All antibody solutions were filtered through 0.2 micron filters prior to use. The absorbance was monitored at 405 nm. […] When anti-TGF-II (irrelevant antibody directed against the transforming growth factor receptor) was used instead of anti-FGF and at the same anti-dilutions, no bFGF was detected. When TGF-β, at a concentration of 40 ng was used as the growth factor molecule, no activity was detected with anti-bFGF antibodies.

T2 sequence (P09038 143-288, species assumed): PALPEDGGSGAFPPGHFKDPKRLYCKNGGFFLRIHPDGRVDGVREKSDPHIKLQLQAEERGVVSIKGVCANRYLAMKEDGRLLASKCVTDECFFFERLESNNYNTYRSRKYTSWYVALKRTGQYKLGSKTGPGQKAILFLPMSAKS

EC50 to support attachment of C3H10T1/2 cells (C3H10T1/2 cells): about 8.7 μg/well | upper saturation limit of the silyl-heparin complex for bFGF (bFGF; color development linear at high concentrations): had not been reached | binding of bFGF to silyl-heparin complexes on a contacting surface (bFGF; immunoassays): readily bound | binding of both fibrinogen and bFGF to heparin on a silyl-heparin complex (bFGF; immunoassays): without displacement of either
Substance: benzyl-(1,2 dimethyl)disilyl heparin [silyl-heparin]
CELL ATTACHMENT [1]: did not attach | CELL ATTACHMENT [2]: did not attach | binding of VEGF to silyl-heparin [3]: VEGF bound to silyl-heparin and the binding was linear | CELL ATTACHMENT [4]: did not attach
